Assay: refractive index (Na D-line) (dimensionless)
Conditions: 100 kPa, Liquid, Standard Abbe refractometry

OCc1cccs1 [2-thiophenemethanol]
Conditions | refractive index
283.15 K | 1.5713
285.65 K | 1.5701
288.15 K | 1.569
290.65 K | 1.5679
293.15 K | 1.5668
295.65 K | 1.5657
298.15 K | 1.5646
300.65 K | 1.5635
303.15 K | 1.5624
305.65 K | 1.5613
308.15 K | 1.5602
310.65 K | 1.559
313.15 K | 1.5579
315.65 K | 1.5568
318.15 K | 1.5557
320.65 K | 1.5546
323.15 K | 1.5535
325.65 K | 1.5524
328.15 K | 1.5513
330.65 K | 1.5502
333.15 K | 1.5491
335.65 K | 1.548
338.15 K | 1.5468

O=Cc1cccs1 [2-thiophenealdehyde]
Conditions | refractive index
283.15 K | 1.5924
285.65 K | 1.5912
288.15 K | 1.59
290.65 K | 1.5888
293.15 K | 1.5876
295.65 K | 1.5864
298.15 K | 1.5853
300.65 K | 1.5841
303.15 K | 1.5829
305.65 K | 1.5817
308.15 K | 1.5805
310.65 K | 1.5793
313.15 K | 1.5781
315.65 K | 1.5769
318.15 K | 1.5757
320.65 K | 1.5745
323.15 K | 1.5733
325.65 K | 1.5721
328.15 K | 1.5709
330.65 K | 1.5697
333.15 K | 1.5685
335.65 K | 1.5674
338.15 K | 1.5662
